US4260745A, “3-Halo cephalosporins” (Eli Lilly and Company, priority 1979, dated 1981)
Converted amounts (≈) assume the structure as drawn. Read-outs that look alike come from different tables or passages of the source.

Key:
Electrometric titration = format: physicochemical; details: 66% aqueous dmf; only or first pKa; read-out: pKa
Staphylococcus aureus = assay: standard disc-plate method, zone of inhibition; format: cell-based; details: Table IV, read-out: Zone of Inhibition (diameter in mm)
Source text: (§1) The in vitro antimicrobial activity of the 3-halo cephalosporins is illustrated by the data in the following tables. Table I contains the antimicrobial activity for 7-[2-(2-thienyl)acetamido]-3-chloro-3-cephem-4-carboxylic acid obtained in the standard Disc-plate method. The numerical values are the diameter in millimeters of the zones of inhibition observed with the named organisms.
(§2) In Table IV below, the in vitro antimicrobial activity of 7-[2-(2-thienyl)acetamido]-3-bromo-3-cephem-4-carboxylic acid is presented for several illustrative microorganisms. The data presented were obtained in the standard disc-plate method with the numerical values recording the diameter in millimeters of the zones of inhibition observed with the named microorganisms.

Klebsiella pneumoniae [1] = assay: standard disc-plate method, zone of inhibition; format: cell-based; details: Table IV, read-out: Zone of Inhibition (diameter in mm)
Source text: as §1, §2

Mycobacterium avium = assay: standard disc-plate method, zone of inhibition; format: cell-based; details: Table IV, read-out: Zone of Inhibition (diameter in mm)
Source text: as §1, §2

Bacillus subtilis = assay: standard disc-plate method, zone of inhibition; format: cell-based; details: Table IV, read-out: Zone of Inhibition (diameter in mm); for zone of inhibition at 10 µg/mL: 0.01 mg./ml.; for zone of inhibition at 100 µg/mL: 0.1 mg./ml.; for zone of inhibition at 1000 µg/mL: 1.0 mg./ml.
Source text: as §1, §2

[2] = tested on: Pseudomonas solanacearcum; assay: standard disc-plate method, zone of inhibition; format: cell-based; parameters: key to Zone of Inhibition (diameter in mm): --: A dash indicates no observed zone of inhibition; hazy zone; details: Table IV
Source text: as §1, §2

Salmonella gallinarum = assay: standard disc-plate method, zone of inhibition; format: cell-based; parameters: key to Zone of Inhibition (diameter in mm): --: A dash indicates no observed zone of inhibition; hazy zone; details: Table IV
Source text: as §1, §2

[3] = tested on: Methicillin resistant Staphylococcus; assay: Gradient Plate technique, MIC; format: cell-based; details: Staphylococcus; Clinical Isolate X400 (methicillin resistant); No Serum; read-out: Minimum Inhibitory Concentration
Pseudomonas aeruginosa [4] = assay: standard disc-plate method, zone of inhibition; format: cell-based; parameters: key: --: A dash indicates no observed zone of inhibition; hazy zone; details: Table IV
Source text: as §2

Neurospora sp. = assay: standard disc-plate method, zone of inhibition; format: cell-based; parameters: key: --: A dash indicates no observed zone of inhibition; hazy zone; details: Table IV
Source text: as §2

Candida albicans = assay: standard disc-plate method, zone of inhibition; format: cell-based; parameters: key: --: A dash indicates no observed zone of inhibition; hazy zone; details: Table IV
Source text: as §2

Serratia marcescens [5] = assay: standard disc-plate method, zone of inhibition; format: cell-based; parameters: key: --: A dash indicates no observed zone of inhibition; hazy zone; details: Table IV
Source text: as §2

[6] = tested on: Trichophyton mentagrophytes; assay: standard disc-plate method, zone of inhibition; format: cell-based; parameters: key: --: A dash indicates no observed zone of inhibition; hazy zone; details: Table IV
Source text: as §2

[7] = tested on: Saccharomyces pastorianus; assay: standard disc-plate method, zone of inhibition; format: cell-based; parameters: key: --: A dash indicates no observed zone of inhibition; hazy zone; details: Table IV
Source text: as §2

Escherichia coli [8] = assay: standard disc-plate method, zone of inhibition; format: cell-based; parameters: key: --: A dash indicates no observed zone of inhibition; hazy zone; details: 0.01 mg./ml.; Table IV
Source text: as §1, §2

[9] = tested on: Penicillin Resistant Staphylococcus; assay: Gradient Plate technique, MIC; format: cell-based; details: read-out: Minimum Inhibitory Concentration
Source text: The following Table II lists the minimum inhibitory concentration (MIC) for 7-[2-(2-thienyl)acetamido]-3-chloro-3-cephem-4-carboxylic acid against penicillin resistant Staphylococcus both in the presence of and absence of serum. The MIC values were obtained by the Gradient Plate technique carried out essentially as described by Bryson and Szybalski, Science, 116, 45 (1952). […]

Pseudomonas aeruginosa [10] = assay: Gradient Plate technique, MIC; format: cell-based; details: read-out: Minimum Inhibitory Concentration
Source text: (§3) The following Table II lists the minimum inhibitory concentration (MIC) for 7-[2-(2-thienyl)acetamido]-3-chloro-3-cephem-4-carboxylic acid against penicillin resistant Staphylococcus both in the presence of and absence of serum. The MIC values were obtained by the Gradient Plate technique carried out essentially as described by Bryson and Szybalski, Science, 116, 45 (1952).
(§4) In Table III, below, the MIC values for the test compound of Tables I and II against representative gram-negative organisms is presented. The data were obtained by the Gradient Plate technique.
(§5) The minimum inhibitory concentrations for 7-[2-(2-thienyl)acetamido]-3-bromo-3-cephem-4-carboxylic acid against representative gram-negative bacteria is presented in Table VI. The data were obtained by the Gradient Plate Method.
(§6) Tables VII and VIII list the minimum inhibitory concentrations of the test compound effective against representative penicillin resistant Staphylococcus strains, while […] the MIC values obtained against representative gram-negative microorganisms. The data were obtained by the Gradient Plate method.

Aerobacter aerogenes = assay: Gradient Plate technique, MIC; format: cell-based; details: Klebsiella aerogenes, read-out: Minimum Inhibitory Concentration
Source text: as §3, §4, §5, §6

Escherichia coli [11] = assay: Gradient Plate technique, MIC; format: cell-based; details: read-out: Minimum Inhibitory Concentration
Source text: as §3, §4, §5, §6

Salmonella heidelberg = assay: Gradient Plate technique, MIC; format: cell-based; details: Salmonella enterica, read-out: Minimum Inhibitory Concentration
Source text: as §3, §4, §5, §6

Klebsiella pneumoniae [12] = assay: Gradient Plate technique, MIC; format: cell-based; details: read-out: Minimum Inhibitory Concentration
Source text: as §3, §4, §5, §6

Serratia marcescens [13] = assay: Gradient Plate technique, MIC; format: cell-based; details: read-out: Minimum Inhibitory Concentration
Source text: as §3, §4, §5, §6

Shigella sp. = assay: Gradient Plate technique, MIC; format: cell-based; details: read-out: Minimum Inhibitory Concentration
Source text: as §3, §4, §5, §6

Compound: O=C(Cc1cccs1)NC1C(=O)N2C(C(=O)O)=C(Br)CS[C@H]12 (some centres unmarked) [7-[2-(2-Thienyl)acetamido]-3-bromo-3-cephem-4-carboxylic acid]
- pKa (Electrometric titration): 4.4
- zone of inhibition at 10 µg/mL (Staphylococcus aureus; 0.01 mg./ml.): 22 mm
- zone of inhibition at 100 µg/mL (Staphylococcus aureus; 0.1 mg./ml.): 25 mm
- zone of inhibition at 1000 µg/mL (Staphylococcus aureus; 1.0 mg./ml.): 27 mm
- zone of inhibition at 10 µg/mL (Klebsiella pneumoniae [1]; 0.01 mg./ml.): 11 mm
- zone of inhibition at 100 µg/mL (Klebsiella pneumoniae [1]; 0.1 mg./ml.): 19 mm
- zone of inhibition at 1000 µg/mL (Klebsiella pneumoniae [1]; 1.0 mg./ml.): 28 mm
- zone of inhibition at 10 µg/mL (Mycobacterium avium; 0.01 mg./ml., hazy zone (h)): 33 mm
- zone of inhibition at 100 µg/mL (Mycobacterium avium; 0.1 mg./ml., hazy zone (h)): 42 mm
- zone of inhibition at 1000 µg/mL (Mycobacterium avium; 1.0 mg./ml.): 23 mm
- zone of inhibition at 10 µg/mL (Bacillus subtilis; Synthetic medium): 43 mm
- zone of inhibition at 10 µg/mL (Bacillus subtilis): 23 mm
- zone of inhibition at 100 µg/mL (Bacillus subtilis; Synthetic medium): 50 mm
- zone of inhibition at 100 µg/mL (Bacillus subtilis): 38 mm
- zone of inhibition at 1000 µg/mL (Bacillus subtilis; Synthetic medium): 60 mm
- zone of inhibition at 1000 µg/mL (Bacillus subtilis): 37 mm
- Zone of Inhibition (diameter in mm) ([2]; 0.01 mg./ml.): --
- zone of inhibition at 100 µg/mL ([2]; Pseudomonas, 0.1 mg./ml., hazy zone (h), read-out: Zone of Inhibition (diameter in mm)): 20 mm
- zone of inhibition at 1000 µg/mL ([2]; Pseudomonas, 1.0 mg./ml., read-out: Zone of Inhibition (diameter in mm)): 31 mm
- Zone of Inhibition (diameter in mm) (Salmonella gallinarum; 0.01 mg./ml.): --
- zone of inhibition at 100 µg/mL (Salmonella gallinarum; Salmonella enterica, GALLINARUM, 0.1 mg./ml., read-out: Zone of Inhibition (diameter in mm)): 15 mm
- zone of inhibition at 1000 µg/mL (Salmonella gallinarum; Salmonella enterica, GALLINARUM, 1.0 mg./ml., read-out: Zone of Inhibition (diameter in mm)): 30 mm
- MIC [3]: > 20 µg/mL
- Zone of Inhibition (diameter in mm) (Pseudomonas aeruginosa [4]; 0.01 mg./ml.): --
- Zone of Inhibition (diameter in mm) (Pseudomonas aeruginosa [4]; 0.1 mg./ml.): --
- Zone of Inhibition (diameter in mm) (Pseudomonas aeruginosa [4]; 1.0 mg./ml.): --
- Zone of Inhibition (diameter in mm) (Neurospora sp.; 0.01 mg./ml.): --
- Zone of Inhibition (diameter in mm) (Neurospora sp.; 0.1 mg./ml.): --
- Zone of Inhibition (diameter in mm) (Neurospora sp.; 1.0 mg./ml.): --
- Zone of Inhibition (diameter in mm) (Candida albicans; 0.01 mg./ml.): --
- Zone of Inhibition (diameter in mm) (Candida albicans; 0.1 mg./ml.): --
- Zone of Inhibition (diameter in mm) (Candida albicans; 1.0 mg./ml.): --
- Zone of Inhibition (diameter in mm) (Serratia marcescens [5]; 0.01 mg./ml.): --
- Zone of Inhibition (diameter in mm) (Serratia marcescens [5]; 0.1 mg./ml.): --
- Zone of Inhibition (diameter in mm) (Serratia marcescens [5]; 1.0 mg./ml.): --
- Zone of Inhibition (diameter in mm) ([6]; 0.01 mg./ml.): --
- Zone of Inhibition (diameter in mm) ([6]; 0.1 mg./ml.): --
- Zone of Inhibition (diameter in mm) ([6]; 1.0 mg./ml.): --
- Zone of Inhibition (diameter in mm) ([7]; 0.01 mg./ml.): --
- Zone of Inhibition (diameter in mm) ([7]; 0.1 mg./ml.): --
- Zone of Inhibition (diameter in mm) ([7]; 1.0 mg./ml.): --
- Zone of Inhibition (diameter in mm) (Escherichia coli [8]): --
- MIC ([9]; Clinical Isolate V 32, No Serum): 0.6 µg/mL (≈ 1.49 µM)
- MIC ([9]; Clinical Isolate V 41, No Serum): 0.5 µg/mL (≈ 1.24 µM)
- MIC ([9]; Clinical Isolate V 84, No Serum): 0.4 µg/mL (≈ 0.992 µM)
- MIC ([9]; Clinical Isolate X 1.1, No Serum): 0.3 µg/mL (≈ 0.744 µM)
- MIC (Pseudomonas aeruginosa [10]): > 200 µg/mL
- MIC (Aerobacter aerogenes): 1 µg/mL (≈ 2.48 µM)
- MIC (Escherichia coli [11]): 20.8 µg/mL (≈ 51.6 µM)
- MIC (Salmonella heidelberg): 1 µg/mL (≈ 2.48 µM)
- MIC (Klebsiella pneumoniae [12]): 1 µg/mL (≈ 2.48 µM)
- MIC (Serratia marcescens [13]): > 200 µg/mL
- MIC (Shigella sp.): 19.8 µg/mL (≈ 49.1 µM)
